Earlier results in patent US20260232685A1, “TRANSDERMAL PERMEATION ENHANCING COMPOSITION AND APPLICATION THEREOF IN TIMOLOL PREPARATION” (WUHAN CONFORM PHARMACEUTICAL CO., LTD., priority 2019, published 2026).

Conditions: absorbed by the gastrointestinal tract; J. Pharm. Pharmacol., 1978, 30, 53

SMILES: CC(C)(C)NC[C@H](O)COc1nsnc1N1CCOCC1 [timolol]
- Hepatic first-pass effect and metabolism at other sites, share of the total dose: about 34%
